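Test compounds were applied to cells in 96-well plates for 48 hours at 5 doses. TGI: concentration producing complete growth inhibition.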 Where a SMILES comes first, the peptide text is derived from it. The star is where a group is joined. Boc = CC(C)(C)OC(=O)*; tBu = CC(C)(C)*
Tests used:
Assay in all cases: NCI anticancer screen, dose series, 48 h
OVCAR-8 ovarian = system: OVCAR-8 ovarian
NCI-H23 lung = system: NCI-H23 lung
KM20L2 colon = system: KM20L2 colon
COLO 205 colon = system: COLO 205 colon
MOLT-4 leukemia = system: MOLT-4 leukemia
NCI-H460 lung = system: NCI-H460 lung
HOP-92 NSCLC = system: HOP-92 NSCLC
M19-MEL melanoma = system: M19-MEL melanoma
MCF7 breast = system: MCF7 breast
SNB-78 CNS = system: SNB-78 CNS
OVCAR-3 ovarian = system: OVCAR-3 ovarian
BT-549 breast = system: BT-549 breast

Row | SMILES | TGI (OVCAR-8 ovarian) [µM] | TGI (NCI-H23 lung) [µM] | TGI (KM20L2 colon) [µM] | TGI (COLO 205 colon) [µM] | TGI (MOLT-4 leukemia) [µM] | TGI (NCI-H460 lung) [µM] | TGI (HOP-92 NSCLC) [µM] | TGI (M19-MEL melanoma) [µM] | TGI (MCF7 breast) [µM] | TGI (SNB-78 CNS) [µM] | TGI (OVCAR-3 ovarian) [µM] | TGI (BT-549 breast) [µM]
1 | CC1CCN(c2cc(-c3cc4ccccc4o3)oc(=O)c2C#N)CC1 | > 100 | > 100 | > 100 | > 100 | > 100 | > 100 | 79 | – | – | – | – | –
2 | O=C(/C=C\c1ccc(/C=C/C(=O)Nc2cccc(C3=NCCCN3)c2)cc1)Nc1cccc(C2=NCCCN2)c1 | > 100 | > 100 | > 100 | > 100 | > 100 | > 100 | > 100 | > 100 | > 100 | > 100 | > 100 | –
3 | COc1cccc(Nc2nc(NS(=O)(=O)c3cc(C)c(Cl)cc3S)n[nH]2)c1 | > 100 | > 100 | – | > 100 | > 100 | > 100 | > 100 | – | > 100 | – | > 100 | > 100
4 | COc1cccc(/C=N/[N-]C(N)=O)c1[O-].[OH3+].[Pd+2] | > 100 | > 100 | > 100 | > 100 | > 100 | > 100 | > 100 | – | – | – | > 100 | –
5 | CCOc1cc2c(cc1O)CC[C@@H]1[C@@H]2CC[C@]2(C)[C@@H](O)CC[C@@H]12 | 33.5 | 24.9 | – | 33.5 | 11.6 | 23 | 29.6 | – | 56.4 | – | 0.76 | 18.3
6 | Fc1ccc(C(OCCN2CC3CC2CN3)c2ccc(F)cc2)cc1 (stereo not given) | > 100 | > 100 | – | 33.5 | > 100 | > 100 | > 100 | – | > 100 | – | > 100 | > 100
7 | CO/C(=N\N=C(/c1ccccc1)C(F)(F)F)c1ccncc1 | > 100 | > 100 | – | > 100 | > 100 | > 100 | > 100 | – | > 100 | – | > 100 | > 100
8 | COC(=O)[C@]1(C)[C@H]2C[C@H]3O[C@H]4[C@H](O)[C@@H](O)OC(CC(O)C(C5=CC(=O)OC5)C(C5=CC(=O)OC5)C(O)CC56CCCCC7[C@@H](C)[C@H](C[C@H]8[C@](C)(C(=O)OC)[C@H](O)CC[C@]78C)O[C@H]([C@@H](O)[C@H](O)O5)[C@H]6O)(CCCCC([C@@H]3C)[C@]2(C)CC[C@@H]1O)[C@H]4O (stereo not given in full) | 1.2 | 0.318 | – | 1.33 | 0.0883 | 0.014 | 3.92 | – | 1.58 | – | 1.05 | 0.305
9 | O=C1c2ccccc2-n2c1nc1ccc(Cl)cc1c2=O | > 100 | > 100 | – | > 100 | > 100 | > 100 | > 100 | – | > 100 | – | > 100 | > 100
10 | CSC1(Cc2ccccn2)C(=O)Nc2cccc([N+](=O)[O-])c21 (stereo not given) | > 100 | > 100 | – | > 100 | > 100 | > 100 | > 100 | – | > 100 | – | > 100 | > 100
11 | Clc1cccc(C2SCc3nc4ccccc4n32)c1 (stereo not given) | 65.1 | 51.4 | – | 15.1 | > 100 | > 100 | 30.4 | 58.4 | – | 87.5 | 29.1 | –
12 | Clc1ccc(Cn2cc(/C=N/n3cnnc3)c3ccccc32)cc1 | > 100 | > 100 | – | > 100 | > 100 | 75 | 68.3 | – | > 100 | – | > 100 | > 100
13 | CO[C@]12C[C@@H](CNC(=O)c3cc(Br)c[nH]3)O[C@H]1NC(=O)N2 | > 100 | > 100 | – | > 100 | > 100 | > 100 | > 100 | – | > 100 | – | > 100 | > 100
14 | CC1=NN(C(=O)c2ccc(C)cc2)C(=O)C1N=Nc1ccccc1C(=O)O (stereo not given) | > 100 | > 100 | > 100 | > 100 | > 100 | > 100 | > 100 | > 100 | > 100 | > 100 | > 100 | –
15 | Nc1ncc(Sc2ccccc2C(=O)O)s1 | > 100 | > 100 | – | > 100 | > 100 | > 100 | > 100 | – | > 100 | – | > 100 | > 100
16 | CCN(CC)C(=S)S | > 100 | – | > 100 | > 100 | – | – | > 100 | > 37.5 | – | > 100 | – | –
17 | CCN(CC)Cc1ccc(Nc2c3ccccc3nc3ccccc23)cc1 | 15 | 4.52 | – | 5.78 | > 100 | 3.05 | 11.9 | – | 4.36 | – | 12.8 | 23.6
18 | Clc1ccc(-c2nnc(-c3nsc4ccccc34)o2)cc1 | > 100 | 74.1 | > 100 | > 100 | – | > 100 | 46.2 | > 100 | – | > 100 | 32 | –
19 | Cc1cc(NS(=O)(=O)c2ccc(NC(=O)c3ccc4nc5ccccc5c(Nc5ccc(S(=O)(=O)Nc6cc(C)on6)cc5)c4c3)cc2)no1 | > 50 | > 50 | – | > 50 | > 50 | > 50 | > 50 | – | > 50 | – | > 50 | > 50
20 | CC1(CCCCO)C=CC(S(=O)(=O)c2ccccc2)CC1 (stereo not given) | 23.2 | 17.8 | – | 14.4 | 14.9 | 13.2 | 7.04 | – | 11.3 | – | 19 | 27.5
21 | O=C1CC(=O)NC(=NN2C(=O)/C(=C/c3ccc(Cl)cc3)N=C2c2ccccc2)N1 | 30.5 | 31.5 | – | 31.5 | 22.7 | 22.9 | 26.1 | – | 53.7 | – | 32.6 | 30.1
22 | CC(C)=NNc1ncnc2nc[nH]c12 | > 100 | > 100 | – | 59.5 | > 100 | 38.9 | > 93.8 | – | > 100 | – | 40.1 | > 100
23 | CCOC(=O)[C@H]1Nc2c(cccc2[N+](=O)[O-])C2c3ccccc3CC21 (stereo not given in full) | > 100 | > 100 | > 100 | > 100 | > 100 | > 100 | – | > 100 | – | > 100 | > 100 | –
24 | CC(OC(C)(C)C)C(NC(=O)C(N)CCCCNC(=O)OC(C)(C)C)C(=O)NC(Cc1ccccc1)C(=O)O (stereo not given) (H-Lys(Boc)-Thr(tBu)-Phe-OH; configuration not given here) | > 100 | > 100 | – | > 100 | > 100 | > 100 | > 100 | – | > 100 | – | > 100 | > 100
25 | O=C(c1ccccc1)c1ccc2nc3n(c2c1)C(c1c(Cl)cccc1Cl)SC3 (stereo not given) | > 55.5 | 83.6 | – | > 90.2 | 19.7 | > 51.9 | > 100 | – | > 100 | – | > 100 | > 100
26 | Nc1nc2c(c(=O)[nH]1)NC(CCNc1ccc(C(=O)O)cc1)CN2 (stereo not given) | > 100 | > 100 | – | > 100 | > 100 | > 100 | > 100 | – | > 100 | – | > 100 | > 100
27 | Cn1cnnc1SC(F)(F)c1nc2ccccc2o1 | > 100 | > 100 | – | > 100 | > 100 | > 100 | > 100 | – | > 100 | – | > 100 | > 100
28 | N/C(=N\N=C/c1cc([N+](=O)[O-])cc([N+](=O)[O-])c1O)NO | > 100 | > 100 | > 100 | > 31.6 | > 100 | > 100 | > 100 | > 100 | > 100 | > 100 | > 100 | –
29 | O=S(=O)(/N=C(\NO)Nc1ccc(Cl)cc1)c1cc(S(=O)(=O)c2ccccc2)cs1 | 36.7 | 41.9 | – | 34.2 | 39.8 | 40.7 | 31.5 | – | 35.9 | – | 31.1 | 45.7
30 | Brc1ccc(-c2nc(-c3ccc(Br)cc3)n(-c3ccccc3)n2)cc1 | > 100 | > 100 | – | 57.5 | > 100 | > 100 | > 100 | – | > 100 | – | > 100 | > 100

— PubChem BioAssay (NCI)
